These results are taken from patent US12168929B2, “Quantifying zonal flow in multi-lateral wells via taggants of fluids” (Saudi Arabian Oil Company, priority 2023, dated 2024).

Converted amounts (≈) assume the structure as drawn.

The nature of series [1]: Solubility of Lumogen F dyes in organic solvents (toluene). It counts as physicochemical. The conditions noted are these: organic solvent or mixture.
The nature of series [2]: Methanol solubility of LR versus non-polar crude oil fractions. It counts as physicochemical. Particulars: non-polar crude oil fractions showed poor MeOH solubility. From the text: To enhance the detection sensitivity further for LR, the fluorescent non-polar fractions of crude oil coeluted with LR during the chromatography may be removed or partially removed from the resulting effluent mixtures. While the polar components of crude oil can be effectively separated using the gravity column chromatography over silica gel with 100% DCM, the separation of the non-polar crude oil components remains a challenge because of its similar polarity with LR, identified by the Rf value on TLC. Therefore, explored was the second step of purification and isolation of the product by utilizing the solubility difference between LR and the non-polar crude oil components. […] Therefore, in subsequent work, DCM from the resulting effluent was evaporated and then the dark viscous residues were re-dissolved in 1 mL of MeOH followed by sonication for 30 seconds.

The conditions of series [3]: cited from earlier work.

As to `CC(C)c1cccc(C(C)C)c1N1C(=O)c2cc(Oc3ccccc3)c3c4c(Oc5ccccc5)cc5c6c(cc(Oc7ccccc7)c(c7c(Oc8ccccc8)cc(c2c37)C1=O)c64)C(=O)N(c1c(C(C)C)cccc1C(C)C)C5=O` [LR, 7,18-bis[2,6-di(propan-2-yl)phenyl]-11,14,22,26-tetraphenoxy-7,18-diazaheptacyclo[14.6.2.2^2,5.0^3,12.0^4,9.0^13,23.0^20,24]hexacosa-1(22),2(26),3,5(25),9,11,13,15,20,23-decaene-6,8,17,19-tetrone], in series [1], the solubility – broadly, the dissolved amount per volume that the medium holds – turned out to be 80000 µg/mL (≈ 74.1 mM). The “solubility in methanol (MeOH)” value in series [2] is “moderately soluble”.

With `CCCCC(CC)CN1C(=O)c2ccc(OC)c3c(OC)ccc(c23)C1=O` (centres unmarked) [LV, 2-(2-ethylhexyl)-6,7-dimethoxybenzo[de]isoquinoline-1,3-dione], the solubility in series [1] amounted to 10000 µg/mL (≈ 27.1 mM).

For `COc1cc(/C=C/C(=O)CC(=O)/C=C/c2ccc(O)c(OC)c2)ccc1O` [curcumin], the “solubility in organic solvents” value in series [3] is “soluble”.

Take `CCN(CC)c1ccc2nc3c4ccccc4c(=O)cc-3oc2c1` [NR, Nile Red]: the “solubility in organic solvents such as DCM and toluene” value in series [3] (DCM, toluene) is recorded as “highly soluble”.

`CC[N+](CC)=c1ccc2nc3c(cc(N)c4ccccc43)oc-2c1` [NB, Nile Blue]: the “solubility in organic solvents” value in series [3] is reported as “relatively low”. Besides, in series [3] (water), the solubility in water entry is given as “highly soluble”.

As to `CC(C)COC(=O)c1ccc2c3ccc(C#N)c4c(C(=O)OCC(C)C)ccc(c5ccc(C#N)c1c52)c43` [LY, bis(2-methylpropyl) 4,10-dicyanoperylene-3,9-dicarboxylate], the solubility in series [1] was less than 1000 µg/mL.
